Experimental data reported in ChEMBL document CHEMBL3826954, “Structure-Guided Discovery of Selective Antagonists for the Chromodomain of Polycomb Repressive Protein CBX7” (ACS Med Chem Lett, 2016).
One block for each compound: values may come before it. Calls of active or inactive are those of the source. The calls are words filed in the database; no cut-off is given here.

What was measured:
[1] = target: T1, Chromobox protein homolog 7 (Homo sapiens, UniProt O95931); assay: Binding affinity to CBX7ChD (7 to 66 residues) (unknown origin) expressed in RIPL-BL21 (DE3)-CodonPlus competent cells in presence of FITC-labeled SETDB1-K1170me3/H3K27me3/ANRIL-LoopC RNA by fluorescence anisotropy assay
T1 sequence (O95931 whole entry): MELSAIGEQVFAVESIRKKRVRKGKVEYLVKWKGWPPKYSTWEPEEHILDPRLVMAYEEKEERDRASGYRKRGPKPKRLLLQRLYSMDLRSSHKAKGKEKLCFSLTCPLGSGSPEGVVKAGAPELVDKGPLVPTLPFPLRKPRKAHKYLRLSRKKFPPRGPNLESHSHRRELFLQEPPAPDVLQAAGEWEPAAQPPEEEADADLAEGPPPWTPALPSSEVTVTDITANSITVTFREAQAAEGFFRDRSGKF

[2] = target: T2, Chromobox protein homolog 7 (Mus musculus) (UniProt Q8VDS3); assay: Antagonist activity at CBX7ChD (7 to 66 residues) expressed in mouse embryonic stem cells assessed as p16INK4a expression levels at 1 to 2 uM after 12 hrs by Western blot analysis; assay type: cell-based
T2 sequence (whole entry): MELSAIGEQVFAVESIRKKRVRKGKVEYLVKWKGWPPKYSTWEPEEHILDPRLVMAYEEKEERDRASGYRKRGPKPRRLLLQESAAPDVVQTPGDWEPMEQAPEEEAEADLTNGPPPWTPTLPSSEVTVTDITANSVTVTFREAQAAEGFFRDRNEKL

[3] = target: T3, Chromobox protein homolog 7 (Homo sapiens) (UniProt O95931); assay: Antagonist activity at CBX7ChD (7 to 66 residues) expressed in human PC3 cells assessed as transcriptional derepression of p16INK4a after 12 hrs by qPCR method; assay type: cell-based; conditions: PC-3
T3 sequence (whole entry): T1 sequence (O95931 whole entry)

[4] = Induction of transcriptional derepression of Gapdh in mouse embryonic stem cells at 0.5 uM after 18 to 36 hrs by qPCR method; assay type: cell-based; conditions: embryonic stem cell
[5] = target: T1, Chromobox protein homolog 7; assay: Binding affinity to CBX7ChD (7 to 66 residues) (unknown origin) expressed in RIPL-BL21 (DE3)-CodonPlus competent cells assessed as compound/protein/FITC-labeled loop C of ANRIL ternary complex formation by fluorescence anisotropy assay
[6] = target: T2, Chromobox protein homolog 7 (Mus musculus); assay: Antagonist activity at CBX7ChD (7 to 66 residues) expressed in mouse embryonic stem cells assessed as transcriptional derepression of Hoxd3 at 0.5 uM after 18 to 36 hrs by qPCR method; assay type: cell-based
[7] = target: T1, Chromobox protein homolog 7; assay: Binding affinity to 15N-labeled CBX7ChD (7 to 66 residues) (unknown origin) expressed in RIPL-BL21 (DE3)-CodonPlus competent cells by HSQC/NMR titration
[8] = target: T2, Chromobox protein homolog 7 (Mus musculus); assay: Antagonist activity at CBX7ChD (7 to 66 residues) expressed in mouse embryonic stem cells assessed as transcriptional derepression of noggin at 0.5 uM after 18 to 36 hrs by qPCR method; assay type: cell-based
[9] = target: T2, Chromobox protein homolog 7 (Mus musculus); assay: Antagonist activity at CBX7ChD (7 to 66 residues) expressed in mouse embryonic stem cells assessed as reduction of protein occupancy at Hoxd3 gene locus at 0.5 uM after 18 to 36 hrs by ChIP analysis; assay type: cell-based
[10] = target: T3, Chromobox protein homolog 7 (Homo sapiens); assay: Binding affinity to CBX7ChD (7 to 66 residues) (unknown origin) expressed in RIPL-BL21 (DE3)-CodonPlus competent cells assessed as enhancement of FITC-ANRIL-loopC/FITC-16mer-RNA binding to protein by fluorescence anisotropy assay
[11] = Induction of transcriptional derepression of HIF1a in human PC3 cells at 1 to 5 uM after 12 hrs by qPCR method; assay type: cell-based; conditions: pc-3, 12 h
[12] = target: T2, Chromobox protein homolog 7 (Mus musculus); assay: Antagonist activity at CBX7ChD (7 to 66 residues) expressed in mouse embryoid bodies assessed as transcriptional derepression of p16INK4a mRNA levels at 1 to 2 uM after 12 hrs by qPCR method
[13] = target: T3, Chromobox protein homolog 7 (Homo sapiens); assay: Antagonist activity at CBX7ChD (7 to 66 residues) expressed in human PC3 cells assessed as transcriptional derepression of p16INK4a at 50 to 250 uM after 12 hrs by qPCR method; assay type: cell-based; conditions: PC-3

Ki [1]: 39.3 µM
Compound: COc1cccc(C(=O)N2CCN(C(=O)COc3ccc(N)c(C)c3)CC2)c1OC

Ki [1]: 10 µM
Compound: COc1cccc(C(=O)N2CCN(C(=O)COc3ccc(NC(N)=O)c(C)c3)CC2)c1OC

Ki [1]: 16.9 µM
Compound: COc1cccc(C(=O)N2CCN(C(=O)COc3cc(C)c(N)c(C)c3)CC2)c1OC

inhibition [13]: inactive
Compound: COc1cccc(C(=O)N2CCN(C(=O)COc3ccc(NC(C)=O)c(C)c3)CC2)c1OC

The next lines start with the compound.

Compound: COc1cccc(C(=O)N2CCN(C(=O)COc3cc(C)c(NC(N)=O)c(C)c3)CC2)c1OC
Ki [1]: 4.8 µM

Compound: Cc1ccccc1Cn1c(=N)n(CC(O)c2ccc(Cl)c(Cl)c2)c2ccccc21 (stereo not given)
inhibition [2]: Active
inhibition [3]: Dose-dependent effect
Activity [4]: Non-toxic
Kd [5]: 23.8 µM
inhibition [6]: Active
Kd [7]: 500 µM
inhibition [8]: Active
inhibition [9]: Active
Activity [10]: Dose-dependent effect
Activity [11]: Non-toxic
inhibition [12]: Active

Compound: COc1cccc(C(=O)N2CCN(C(=O)COc3cc(C)c(N)c(C(C)C)c3)CC2)c1OC
inhibition [13]: inactive

Compound: COc1cccc(C(=O)N2CCN(C(=O)COc3cccc(C)c3)CC2)c1OC
inhibition [13]: inactive
Kd [5]: 125 µM
Ki [1]: 33.1 µM

Compound: CCS(=O)(=O)Nc1ccc(OCC(=O)N2CCN(C(=O)c3cccc(OC)c3OC)CC2)cc1C
inhibition [13]: inactive
Ki [1]: 25 µM

Compound: CCS(=O)(=O)Nc1c(C)cc(OCC(=O)N2CCN(C(=O)c3cccc(OC)c3OC)CC2)cc1C
inhibition [13]: inactive
Ki [1]: 10 µM

Compound: COc1cccc(C(=O)N2CCN(C(=O)COc3cc(C)c(NS(C)(=O)=O)c(C)c3)CC2)c1OC
inhibition [13]: inactive
